#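 Each compound was tested at five concentrations against cells in 96-well plates for 48 hours. TGI denotes the concentration required for complete inhibition of growth.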
# How the values were obtained:
# Test in all cases: DTP human tumour cell line panel, 48 h
# 786-0 renal = test system: 786-0 renal
# A498 renal = test system: A498 renal
# A549 NSCLC = test system: A549 NSCLC
# ACHN renal = test system: ACHN renal
# BT-549 breast = test system: BT-549 breast
# CCRF-CEM leukemia = test system: CCRF-CEM leukemia
# COLO 205 colon = test system: COLO 205 colon
# DU-145 prostate = test system: DU-145 prostate
# EKVX NSCLC = test system: EKVX NSCLC
# HCT-116 colon = test system: HCT-116 colon
# HCT-15 colon = test system: HCT-15 colon
# HL-60(TB) leukemia = test system: HL-60(TB) leukemia
# HOP-62 NSCLC = test system: HOP-62 NSCLC
# HOP-92 NSCLC = test system: HOP-92 NSCLC
# HS 578T breast = test system: HS 578T breast
# HT29 colon = test system: HT29 colon
# IGROV1 ovarian = test system: IGROV1 ovarian
# K-562 leukemia = test system: K-562 leukemia
# KM12 colon = test system: KM12 colon
# LOX IMVI melanoma = test system: LOX IMVI melanoma
# M14 melanoma = test system: M14 melanoma
# MALME-3M melanoma = test system: MALME-3M melanoma
# MCF7 breast = test system: MCF7 breast
# MDA-MB-231 breast = test system: MDA-MB-231 breast
# MDA-MB-435 = test system: MDA-MB-435
# MDA-N = test system: MDA-N
# MOLT-4 leukemia = test system: MOLT-4 leukemia
# NCI-H226 lung = test system: NCI-H226 lung
# NCI-H460 lung = test system: NCI-H460 lung
# NCI-H522 lung = test system: NCI-H522 lung
# NCI/ADR-RES ovarian = test system: NCI/ADR-RES ovarian
# OVCAR-3 ovarian = test system: OVCAR-3 ovarian
# OVCAR-4 ovarian = test system: OVCAR-4 ovarian
# OVCAR-5 ovarian = test system: OVCAR-5 ovarian
# OVCAR-8 ovarian = test system: OVCAR-8 ovarian
# PC-3 prostate = test system: PC-3 prostate
# RPMI-8226 leukemia = test system: RPMI-8226 leukemia
# RXF 393 renal = test system: RXF 393 renal
# SF-268 CNS = test system: SF-268 CNS
# SF-295 CNS = test system: SF-295 CNS
# SF-539 CNS = test system: SF-539 CNS
# SK-MEL-2 melanoma = test system: SK-MEL-2 melanoma
# SK-MEL-28 melanoma = test system: SK-MEL-28 melanoma
# SK-MEL-5 melanoma = test system: SK-MEL-5 melanoma
# SK-OV-3 ovarian = test system: SK-OV-3 ovarian
# SN12C renal = test system: SN12C renal
# SNB-19 CNS = test system: SNB-19 CNS
# SW-620 colon = test system: SW-620 colon
# T-47D breast = test system: T-47D breast
# TK-10 renal = test system: TK-10 renal
# U251 CNS = test system: U251 CNS
# UACC-257 melanoma = test system: UACC-257 melanoma
# UACC-62 melanoma = test system: UACC-62 melanoma
# UO-31 renal = test system: UO-31 renal
smiles,measurement,setting,value
N#CCCN(CCC#N)c1ccc(/C=C2\N=C(c3ccccc3)N(c3ccc(Cl)cc3)C2=O)cc1,TGI,786-0 renal,> 100 µM
same,TGI,A498 renal,> 100 µM
same,TGI,A549 NSCLC,> 100 µM
same,TGI,ACHN renal,> 100 µM
same,TGI,BT-549 breast,> 100 µM
same,TGI,CCRF-CEM leukemia,> 100 µM
same,TGI,COLO 205 colon,> 100 µM
same,TGI,DU-145 prostate,> 100 µM
same,TGI,EKVX NSCLC,> 100 µM
same,TGI,HCT-116 colon,> 100 µM
same,TGI,HCT-15 colon,> 100 µM
same,TGI,HL-60(TB) leukemia,> 100 µM
same,TGI,HOP-62 NSCLC,> 100 µM
same,TGI,HOP-92 NSCLC,> 100 µM
same,TGI,HS 578T breast,86.8 µM
same,TGI,HT29 colon,> 100 µM
same,TGI,IGROV1 ovarian,> 100 µM
same,TGI,K-562 leukemia,> 100 µM
same,TGI,KM12 colon,> 100 µM
same,TGI,LOX IMVI melanoma,> 100 µM
same,TGI,M14 melanoma,> 100 µM
same,TGI,MALME-3M melanoma,> 100 µM
same,TGI,MCF7 breast,> 100 µM
same,TGI,MDA-MB-231 breast,> 100 µM
same,TGI,MDA-MB-435,> 100 µM
same,TGI,MDA-N,> 100 µM
same,TGI,MOLT-4 leukemia,> 100 µM
same,TGI,NCI-H226 lung,> 100 µM
same,TGI,NCI-H460 lung,> 100 µM
same,TGI,NCI-H522 lung,> 100 µM
same,TGI,NCI/ADR-RES ovarian,> 100 µM
same,TGI,OVCAR-3 ovarian,> 100 µM
same,TGI,OVCAR-4 ovarian,> 100 µM
same,TGI,OVCAR-5 ovarian,> 100 µM
same,TGI,OVCAR-8 ovarian,> 100 µM
same,TGI,PC-3 prostate,> 100 µM
same,TGI,RPMI-8226 leukemia,> 100 µM
same,TGI,RXF 393 renal,> 100 µM
same,TGI,SF-268 CNS,> 100 µM
same,TGI,SF-295 CNS,> 100 µM
same,TGI,SF-539 CNS,> 100 µM
same,TGI,SK-MEL-2 melanoma,> 100 µM
same,TGI,SK-MEL-28 melanoma,> 100 µM
same,TGI,SK-MEL-5 melanoma,> 100 µM
same,TGI,SK-OV-3 ovarian,> 100 µM
same,TGI,SN12C renal,> 100 µM
same,TGI,SNB-19 CNS,> 100 µM
same,TGI,SW-620 colon,> 100 µM
same,TGI,T-47D breast,> 100 µM
same,TGI,TK-10 renal,> 100 µM
same,TGI,U251 CNS,> 100 µM
same,TGI,UACC-257 melanoma,> 100 µM
same,TGI,UACC-62 melanoma,> 100 µM
same,TGI,UO-31 renal,> 100 µM
